“Also recorded” adds a separate entry of the source.
Columns and labels:
female Fisher 344 rats [1] = assay: Cancellous bone histomorphometry of rat proximal tibial metaphysis after oral 2ME; assay type: in vivo; details: 100 mg/kg/day oral gavage 13 days, mean ± SE
Protocol: (§1) All studies were approved by the Institutional Animal Care and Use Committee of the Mayo Clinic, Rochester, Minn. Rats were kept in plastic cages (3 per cage) under standard conditions of a 12 hr dark and 12 hr light cycle with food (Purina Laboratory rodent diet 5001, Ralston-Purina, St. Louis, Mo.) and water ad libitum. Rooms were maintained at a temperature of 24° C.
(§2) Fluorochromes were given […] tail vein.
(§3) Bone histomorphometry Histomorphometric measurements were performed with the OsteoMeasure Analysis System (OsteoMetrics, Atlanta, Ga.), which consisted of a Pentium 1133 computer coupled to a photomicroscope and image analysis system. […] The region of interest was traced, and the line lengths and area bounded by lines were calculated automatically.
Cancellous bone measurements on stained sections The proximal tibial metaphysis was dehydrated in a series of increasing concentrations of ethanol, embedded without demineralization in a mixture of methyimethacrylate-2-hydroxyethyl and methacrylate (12.5:1) to retain the fluorochrome labels, and sectioned at a thickness of 5 μm (Reichert-Jung Model 2065 Microtome, Heidelberg Germany). Sections were stained with toluidine blue. A standard sampling site was established in the secondary spongiosa of the metaphysis, 1 mm distal to the calcein label that was deposited at the metaphyseal growth plate, its center perpendicular to the long axis of each bone and extending 2.0 mm distal to the starting point. This method adjusts for longitudinal growth such that only the portion of the secondary spongiosa present throughout the experiment was sampled. A total metaphyseal area of 2.88 mm^2 was sampled for each section.
Bone volume measurements Cancellous bone area and cancellous perimeter were determined as described by Turner, R. T. et al., 1998, supra. The following indices of trabecular architecture were calculated: 1) trabecular thickness; 2) trabecular number; and 3) trabecular separation.
Bone formation measurements and calculations Bone formation rate (%/day, tissue area referent) was calculated as the double-labeled perimeter (μn) multiplied by the mineral apposition rate (μm/day) and divided by the tissue area (mm^2); bone formation rate (perimeter referent) was calculated as the double-labeled perimeter (μm) multiplied by the mineral apposition rate (μm/day) and divided by the total bone perimeter (mm); mineral apposition rate was calculated as the mean distance between the declomycin label and the calcein label by the time interval (11 days); and double-labeled perimeter (tissue are referent) was measured as the length with declomycin and calcein labels (mm/mm^2 of cancellous tissue area).
(§4) Statistical Analvses All values are expressed as mean±standard error (SE). Significant differences between groups were determined by Fisher's Protected Least Significant Difference post hoc test for multiple group comparisons following detection of significance by 1-way ANOVA. Significance was considered at p values ≦0.05.

[2] = Serum cholesterol in 2ME treated rats; assay type: in vivo, rat; details: 100 mg/kg/day oral gavage 13 days
female Fisher 344 rats [3] = assay: Growth plate histomorphometry and longitudinal bone growth rate in rats; assay type: in vivo, rat; details: 100 mg/kg/day oral gavage 13 days
Protocol: Twenty-five female 3-month-old Fisher 344 rats, weighing approximately 141-160 g, were purchased from Harlan Sprague Dawley (Madison, Wis.). The rats were divided into 3 groups (8 or 9 rats/group) of a baseline group that was sacrificed on the first day of treatment, a control group that was treated with carrier (liposomes) only, and a 2ME treatment group. […] Fluorochromes were given juxta tail vein. Declomycin (20 mg/kg) was given on the first day of treatment and calcein (15 mg/kg) two days prior to sacrifice, in order to label mineralizing bone and cartilage. Twenty-four hours after the last dosage, rats were anesthetized with ketamine HCl (100 mg/kg):xylaxine HCl (10 mg/kg) and sacrificed by decapitation. […] Tibiae were quickly excised and fixed for histomorphometry in a solution of 70% ethanol.
Growth Plate Measurements The longitudinal bone growth rate was measured at 5 equally spaced sites across the growth plate as the distance between the declomycin and calcein labels that had been deposited into the mineralizing front of the hypertrophic zone of the growth plate divided by the 11 day interval between application of the sequential fluorochromes.
Growth plate thickness was measured as the mean distance between the zone of vascular invasion and the resting zone. Thicknesses of the proliferative zone and hypertrophic zone were also measured.

MG63 cells = assay: Apoptotic gene mRNA levels by RNase protection assay; assay type: cell-based, human; details: 10 μM
Protocol: The changes in expression of the genes that are known to antagonize or promote apoptosis were analyzed by this method. MG63 cells in triplicate cultures were treated with 10 μM 2ME. Cells were harvested at the end of 12, 24, 48 and 72 h of treatment and used for RNA isolation. Total RNA isolated from cells was analyzed by RNase protection assay using apoptosis template set for multiprobes (Pharmingen; San Diego, Calif.). Quantitation of protected RNA fragments was performed by Phosphor Imager analyses and normalized to L32 or GAP levels. The mRNA for the proapoptotic gene bak and bax were increased by 2ME treatment in MG63 cells (FIG. 7). The increase was significant within 12 h of treatment and reached a maximum (2 fold for bak; 2.5 fold for bax) at 48 h, at which time cell death by apoptosis was detected by in situ TUNEL assay.

female Fisher 344 rats [4] = assay: Cortical bone histomorphometry of rat tibia after oral 2ME; assay type: in vivo; details: 100 mg/kg/day oral gavage 13 days, mean ± SE
Protocol: as §1, §2, §3
Cortical bone measurements Ground transverse sections, cut at a site just proximal to the tibia-fibula synostosis, were prepared for histomorphometric analysis of cortical bone as described by Merriam, G. R. et al., Steroids, 1980, 136: 1-11. The following values were obtained as described by Turner, R. T. et al., Endocrinology, 1998, 139:3712-3720: 1) cross-sectional bone area; 2) medullary area: 3) cortical bone area: 4) periosteal perimeter; 5) endocortical perimeter; 6) periosteal bone formation rate, calculated as the area of bone between the declomycin label given at the start of the experiment and periosteal perimeter divided by the post-labeling period of 11 days; 7) periosteal mineral apposition rate, an index of osteoblast activity which is calculated as the periosteal bone formation rate divided by the label perimeter; and 8) periosteal label perimeter, an index of osteoblast number, defined as the periosteal perimeter labeled with calcein.
as §4

Structure (SMILES): COc1cc2c(cc1O)CC[C@@H]1[C@@H]2CC[C@]2(C)[C@@H](O)CC[C@@H]12 [2ME, 2-methoxyestradiol]
- BFR/BS (female Fisher 344 rats [1]): 0.35 ± 0.03 %/day
- BV/TV (female Fisher 344 rats [1]): 17.7 ± 1.9%
- Mineral Apposition Rate (female Fisher 344 rats [1]): 172 ± 0.05 μm/day
- Tb.Sp (female Fisher 344 rats [1]): 297 ± 46 μm
- Tb.Th (female Fisher 344 rats [1]): 57 ± 2 μm
- effect on serum cholesterol (in words) [2]: decreased; also recorded: highly significant decreases
- Proliferative zone thickness (female Fisher 344 rats [3]; mean ± SE, control 42 ± 5): 11 ± 3 μm
- Hypertrophic zone thickness (female Fisher 344 rats [3]; mean ± SE, control 46 ± 6): 6 ± 2 μm
- Growth plate thickness (female Fisher 344 rats [3]; mean ± SE, control 153 ± 14): 70±6 μm
- effect on longitudinal bone growth (in words) (female Fisher 344 rats [3]; proximal tibia, 100 mg/kg/day): decreased; also recorded: highly significant decreases
- longitudinal bone growth rate (female Fisher 344 rats [3]; proximal tibia, control 55±2): 20±2 μm/day
- maximum increase of bak mRNA (MG63 cells; 48 h): 2 fold
- maximum increase of bax mRNA (MG63 cells; 48 h): 2.5 fold
- mRNA levels for bak and bax (in words) (MG63 cells; 72 h): returned to basal level
- Bone Formation Rate (female Fisher 344 rats [4]; cortical (periosteal) bone): 5.32 ± 0.47 mm^2 × 10^−3/day
- Mineral Apposition Rate (female Fisher 344 rats [4]; cortical (periosteal) bone): 1.34 ± 0.06 μm/day
- Cortical Area (female Fisher 344 rats [4]; cortical bone, tibia): 2.28 ± 0.03
- Cross-sectional area (female Fisher 344 rats [4]; cortical bone, tibia): 2.98 ± 0.04 mm^2
- Medullary Area (female Fisher 344 rats [4]; cortical bone, tibia): 0.70 ± 0.02 mm^2

— patent US6730665B1, “Treatment of bone cancer” (Mayo Foundation for Medical Education and Research, priority 1999, dated 2004)
